# Experimental data published in a melting point compilation (Tetko et al.).
row,melting point [°C],Structure (SMILES)
1,192 to 194,COc1ccc(/C=C/C(=O)O)c(OC)c1
2,121 to 123,CC(C)Oc1ccc(S(N)(=O)=O)cc1
3,235 to 237,O=C(O)c1cc2ccccc2cc1NC(=O)C1CC1
4,168 to 170,CC(C)(C)OC(=O)N1CCN(C(N)=S)CC1
5,154 to 156,Cc1cc(N2CCNC(=O)C2)ccc1CN
6,181 to 183,Cc1ccc(N2CCCNC(=O)C2)cc1
7,94 to 96,O=S1(=O)CCC(O)c2ccccc21 (centres undefined)
8,182 to 184,CC1CCC(C(=O)O)C2C(=O)N(c3ccccc3)C(=O)C12 (centres undefined)
9,71 to 73,COc1ccccc1N(CCC#N)C(=O)C(C)Cl (centres undefined)
10,72 to 74,CC(C)C(Br)C(=O)N(C)C1CCCCC1 (centres undefined)
11,125 to 127,O=C(O)c1ncoc1C1CCCO1 (centres undefined)
12,179 to 181,CC(C)CNS(=O)(=O)c1cc(C(=O)O)c(Cl)cc1Cl
13,191 to 193,O=C(O)c1ccc(OC2CCC2)cc1
14,59 to 62,CC(=O)c1ccc(C)c([N+](=O)[O-])c1
15,123 to 125,CC(C)c1ccc(C(CN)NC(=O)OC(C)(C)C)cc1 (centres undefined)
16,206 to 208,COc1ccc2[nH]cc(C(C)=O)c2c1
17,61 to 63,CC(C)(C)OC(=O)N1CC2CCC(O)C2C1 (centres undefined)
18,89 to 91,NC(=S)NC1CCCCCC1
19,164 to 166,Cc1c(C(=O)O)nnn1-c1ccc(Cl)cc1F
20,159 to 161,O=C(O)c1ccc2c(c1)S(=O)(=O)N(CC1CCCO1)C2=O (centres undefined)
21,109 to 111,CC1CC(C(=O)O)CC(C)O1 (centres undefined)
22,211 to 213,Cc1cc(C(=O)O)nn1-c1ccc(Br)cc1
23,159 to 161,Nc1cccc2c1C(=O)N(C1CC1)C2=O
24,99 to 101,O=C(O)C1(O)CCSC1 (centres undefined)
25,243 to 247,N=c1sccn1CC(=O)O
26,195 to 197,Cc1n[nH]c(C)c1C(C)CC(=O)O (centres undefined)

row,melting point [°C],Structure (SMILES)
1,147 to 149,CC(C)(CC(=O)c1ccc(Cl)cc1)C(=O)O
2,148 to 152,Cc1sc(NC(=O)C2CC2)c(C(=O)O)c1C
3,154 to 156,CC(C)(C)OC(=O)N1CCOCC1C(=N)NO (centres undefined)
4,69 to 71,CC(C)Oc1ccc([N+](=O)[O-])cc1CBr
5,95 to 97,COC(=O)/C=C1\SCC(=O)N1CCCCl
6,74 to 76,CS(=O)(=O)N1CCCCC1C(=O)O (centres undefined)
7,127 to 129,O=C(NCCN1CCOCC1)C1CCNCC1
8,77 to 79,CC(C)n1[nH]ccc1=NC(=O)OCC(F)(F)F
9,142 to 144,CCCc1noc2nc(C3CC3)cc(C(=O)O)c12
10,99 to 101,CC(=O)NCCC(N)=S
11,133 to 135,CCc1ccc(S(=O)(=O)Cl)cc1C(=O)O
12,256 to 258,Cc1cc(-c2cc(C(=O)O)c3c(C)noc3n2)c(C)s1
13,221 to 223,CNS(=O)(=O)c1cc(C(=O)O)ccc1OC
14,100 to 102,c1ccc2sc(NC3CCCCC3)nc2c1
15,137 to 139,COc1ccccc1C1CC1C(=O)O (centres undefined)
16,168 to 170,CC(C)N1CCC(C(=O)O)CC1
17,72 to 74,Nc1cc(CC2CCCCC2)n[nH]1
18,92 to 94,CC(C)Oc1ccccc1CC(=O)O
19,145 to 147,CC1CCN(Cc2csc(N)n2)CC1
20,130 to 132,CCC(=CC(=O)O)c1ccc(OC)cc1
21,155 to 157,O=C(O)C(NC1CC1)c1cc(Br)cs1 (centres undefined)
22,118 to 120,Nc1cc(Cl)ccc1C(=O)N1CCCC1
23,46 to 48,COC(=O)C(NS(C)(=O)=O)C(C)C (centres undefined)
24,159 to 161,CC(=O)Oc1ccc(C(=O)O)cc1OC(C)=O
25,171 to 173,Cc1cc(C(=O)CCl)c(C)n1-c1cccc(S(=O)(=O)N2CCOCC2)c1
26,210 to 212,Cc1cnc(-c2cccc(C(=O)O)c2)s1

# The next lines start with the compound.
row,Structure (SMILES),melting point [°C]
1,O=C(O)CNC(=O)c1cc2ccccc2[nH]1,231 to 233
2,NS(=O)(=O)Cc1ccc(Cl)cc1Br,169 to 171
3,Nc1cc(C(=O)O)nc2ccccc12,276 to 278
4,COC(=O)COc1ccc(O)cc1,113 to 115
5,Cc1ccc(S(=O)(=O)Nc2cc(Cl)ccc2C(=O)O)cc1,205 to 207
6,N#Cc1c[nH]c(C(=O)C(Cl)(Cl)Cl)c1,134 to 136
7,O=C(O)c1cc(-c2cccc(Cl)c2)on1,175 to 177
8,Cc1nc(N)sc1Cc1ccccc1Cl,126 to 128
9,O=C(O)c1cccc(F)c1Sc1ccccc1,161 to 163
10,O=C1NCC2(CCCCC2)O1,96 to 98
11,CCn1c(C)nnc1S,129 to 131
12,CC(C)(C)n1cc(C(=O)O)c(-c2ccccc2Cl)n1,164 to 166
13,O=[N+]([O-])c1ccc(O)cc1Cl,115 to 117
14,Nc1nnc(-c2ccccn2)[nH]1,199 to 201
15,O=C(O)c1cc(-c2ccc(Cl)s2)on1,169 to 171
16,CCOC(C(=O)O)(c1ccccc1)c1ccccc1,113 to 115
17,O=C1Nc2ccccc2NC1CO (centres undefined),140 to 142
18,Nc1ccc2nc(S)oc2c1,208 to 210
19,O=C(O)c1cnn(C2CCCCC2)c1,197 to 199
20,CCc1nc(N)[nH]c(=S)n1,239 to 241
21,CC(N)c1ccc(NS(C)(=O)=O)cc1 (centres undefined),142 to 144
22,COc1ccc(-c2csc(CN)c2)cc1,124 to 126
23,CC1Oc2ccc(Br)cc2NC1=O (centres undefined),189 to 191

row,Structure (SMILES),melting point [°C]
1,NCc1ccc(OCCCOc2ccc(Cl)cc2Cl)cc1,51 to 53
2,COCCNS(=O)(=O)c1ccc(C#N)cc1,88 to 90
3,Cn1ccnc1Sc1ccc(C=O)cc1[N+](=O)[O-],173 to 175
4,Nc1ccc(-c2cn3cccnc3n2)cc1,251 to 253
5,Cn1cnc(-c2ccc(N)cc2)n1,138 to 140
6,O=C(O)c1ccc2c(=O)n(-c3ccccc3F)c(=O)[nH]c2c1,343 to 345
7,C#CCn1ccc2ccccc21,43 to 45
8,C=C(C#N)C(O)c1ccc([N+](=O)[O-])cc1 (centres undefined),64 to 66
9,NC(=S)CCN1C(=O)c2ccccc2C1=O,186 to 188
10,COc1cc(CN)ccc1OCCO,113 to 115
11,CCOc1ccc2c(c1)C(=O)NC2=O,159 to 161
12,N#Cc1cc([N+](=O)[O-])cnc1O,259 to 261
13,COC(=O)c1ccc(C(N)=S)cc1,189 to 191
14,COC(=O)c1c[nH]cc1-c1ccc([N+](=O)[O-])cc1,244 to 246
15,O=C1Nc2cccc(Br)c2C1=O,229 to 231
16,Nc1ccc(I)cc1Br,83 to 85
17,CCOC(=O)c1ncoc1-c1ccco1,93 to 95
18,Cc1nc2sccc2c(=O)n1N,181 to 183
19,Cc1cccc(NC(=O)Nc2cccc(CN)c2)c1,163 to 165
20,Nc1cc(I)ccc1O,135 to 137
21,N#Cc1ccccc1Oc1ccc(N)cc1F,119 to 121
22,NC1(c2ccc(Cl)cc2)CCOCC1,50 to 52
23,CC(c1ccccc1)n1c(N)nc2ccccc21 (centres undefined),124 to 126

row,Structure (SMILES),melting point [°C]
1,Nc1nc(-c2ccc(C3CCCCC3)cc2)cs1,227 to 229
2,Cc1ccc(Cl)c2ccc(=O)[nH]c12,254 to 256
3,COc1cc2c(c(OC)c1OC)CCNCC2,60 to 62
4,NS(=O)(=O)c1ccc(Cl)cn1,125 to 127
5,O=C(O)CCC(=O)c1ccc(I)cc1,175 to 177
6,CCOC(=O)c1cc(-c2ccccc2)sc1N,118 to 120
7,CCCN(C)S(N)(=O)=O,32 to 34
8,CCn1c(N)nc2cc(C#N)ccc21,189 to 191
9,CN(C)c1nc(=NN)cc[nH]1,144 to 146
10,Cc1ccc(CNCc2ccc(C)n2C)n1C,61 to 63
11,COc1cccc2[nH]cc(CCN)c12,119 to 121
12,COc1cc(Cl)c(C(=O)CBr)cc1OC,93 to 95
13,O=C(O)c1cnc(-c2ccccc2)s1,187 to 189
14,NC(=O)CCn1ccnc1,137 to 139
15,Cc1nc(Cl)c(C)c(NN)n1,141 to 143
16,Cc1nc(C)c(S(N)(=O)=O)s1,142 to 144
17,CCCS(=O)(=O)Nc1cc(N)c(F)cc1F,95 to 97
18,COc1cc(Cl)ccc1S(=O)(=O)Cl,89 to 91
19,COc1ccccc1-c1nnc(S)n1C,177 to 179
20,NC(=O)CCC(C(=O)O)N1C(=O)c2ccccc2C1=O (centres undefined),161 to 163
21,Cc1ccc(S(=O)(=O)c2ccc(NN)cc2)cc1,173 to 175
22,OC1(Cc2ccc(F)cc2F)CC2CCC(C1)N2 (centres undefined),142 to 144
23,C#CCNC(=O)Nc1cccc(C#N)c1,167 to 169

row,Structure (SMILES),melting point [°C]
1,COC(=O)c1sc(-c2ccccc2Cl)cc1N,109 to 111
2,N#Cc1ccc(-n2cc(C#N)c(N)n2)c(F)c1,258 to 260
3,NC(=NO)c1ccc(Br)o1,129 to 131
4,Brc1cnc2nccnc2c1,158 to 160
5,Cc1nnnn1-c1ccc(F)c(NC(=O)CCl)c1,179 to 181
6,O=C(O)c1cn(C2CCCCC2)nn1,163 to 165
7,CCC(=O)c1ccc(OCC(=O)O)cc1,131 to 133
8,CCCCNc1c(N)n(Cc2ccccc2)c(=O)[nH]c1=O,117 to 119
9,CC(C)c1ccc(Cn2nccc2N)cc1,< 17
10,Cn1cc(S(N)(=O)=O)c(N)n1,162 to 164
11,Nc1cccc(S(=O)(=O)Nc2nccs2)c1,170 to 172
12,c1ccc(-c2noc(CSc3nnc(-c4ccncc4)o3)n2)cc1,134 to 136
13,Nc1nccnc1CO,115 to 117
14,O=C1CCc2c(Cl)cc(Cl)cc21,109 to 111
15,Cc1ccc(N)cc1S(=O)(=O)Nc1cccc(Cl)c1,158 to 160
16,O=C(O)Cc1cccc2cccnc12,130 to 132
17,CCN(C(C)=O)c1nc(C=O)cs1,121 to 123
18,Cn1ccnc1C(N)c1ccc(Cl)cc1 (centres undefined),45 to 49
19,O=S(=O)(Cl)c1cccc(-n2cnnn2)c1,125 to 127
20,Cc1cc([N+](=O)[O-])cc(S(=O)(=O)Cl)c1F,73 to 75
21,Nc1ccnn1Cc1c(Cl)cccc1Cl,127 to 129
22,O=c1n(CCCl)nc2ccccn12,139 to 141
23,COC(=O)c1cc(Cl)nc2ccccc12,87 to 89
